Test results from ChEMBL document CHEMBL5244267, “A brief overview on recent advances in spiro[chromane-2,4'-piperidine]-4(3H)-one-functionalized compounds in medicinal chemistry research” (Bioorg Med Chem, 2020).
Values after ≈ are worked out from the molar mass of the structure shown. Each block holds one compound with its values, some of them ahead of it.

Key:
Carbonic anhydrase 9 = Carbonic anhydrase 9 (Homo sapiens, UniProt Q16790); test: Binding affinity to human CA9 assessed as inhibition constant
[1] = Antioxidant activity assessed as DPPH free radical scavenging activity at 500 microg/ml; format: functional
[2] = Antioxidant activity assessed as DPPH radical scavenging activity at 100 uM/ml; format: functional
[3] = Antioxidant activity assessed as H2O2 radical scavenging activity; format: functional
[4] = target: Acetyl-CoA carboxylase 1 (Rattus norvegicus) (UniProt P11497); test: In vivo inhibition of ACC1 in Sprague-Dawley rat assessed as reduction in malonyl-CoA in liver; format: functional
[5] = target: Acetyl-CoA carboxylase 1 (Rattus norvegicus) (UniProt P11497); test: In vivo inhibition of ACC1 in Sprague-Dawley rat assessed as reduction in malonyl-CoA in liver at […] relative to control; format: functional
[6] = In vivo inhibition of ACC2 in Sprague-Dawley rat assessed as reduction in malonyl-CoA in quadriceps at […] relative to control; format: functional
[7] = In vivo inhibition of ACC2 in Sprague-Dawley rat assessed as reduction in malonyl-CoA in quadriceps; format: functional
[8] = AUC in CD1 mouse at 10 mg/kg, iv administered as single dose by UPLC analysis; format: ADME, organism-based; design: dose 10 mg/kg, route iv; settings: in vivo
[9] = Half life in CD1 mouse at 3 mg/kg, iv; format: ADME, organism-based; settings: in vivo
[10] = AUC (0 to infinity) in CD1 mouse at 10 mg/kg, iv administered as single dose by UPLC analysis; format: ADME, organism-based; design: dose 10 mg/kg, route iv; settings: in vivo
[11] = Cmax in CD1 mouse at 0.5 mg/kg, iv; format: ADME, organism-based; design: dose 0.5 mg/kg, route iv; settings: in vivo
[12] = Volume of distribution in CD-1 mouse at 10 mg/kg iv measured by UPLC-MS/MS method; format: ADME, organism-based; settings: in vivo
[13] = Clearance in CD-1 mouse at 10 mg/kg iv measured by UPLC-MS/MS method; format: ADME, organism-based; settings: in vivo
MCF7 = test: Anticancer activity against human MCF7 cells assessed as inhibition of cell proliferation measured after 48 hrs by MTT assay; format: functional, cell-based; settings: MCF7, 48 h
HT-29 = test: Anticancer activity against human HT-29 cells assessed as inhibition of cell proliferation measured after 48 hrs by MTT assay; format: functional, cell-based; settings: HT-29, 48 h
A2780 = test: Anticancer activity against human A2780 cells assessed as inhibition of cell proliferation measured after 48 hrs by MTT assay; format: functional, cell-based; settings: A2780, 48 h
Erythrocyte = test: Anti-inflammatory activity in human red blood cells assessed as protection of cell membrane at 100 ug/mL relative to control; format: functional; settings: dose 100 µg/ml
HepG2 = test: Antiproliferative activity against human HepG2 cells assessed as reduction in cell viability after 24 hrs by MTT assay; format: functional, cell-based; settings: HepG2, 24 h
[14] = Aqueous solubility of the compound at pH 5.0; format: physicochemical; settings: buffer
[15] = Aqueous solubility of the compound at pH 6.2; format: physicochemical; settings: buffer
Plasmodium falciparum = test: Antiplasmodial activity against chloroquine-resistant Plasmodium falciparum Dd2 in HepG2 cells; format: functional, organism-based
[16] = Lipophilicity, logP of the compound; format: physicochemical; settings: octanol/water

Ki (Carbonic anhydrase 9): 4.41 µM
SMILES: NS(=O)(=O)c1ccc(N2CCC3(CC2)CC(=O)c2ccc(O)cc2O3)c([N+](=O)[O-])c1

IC50 [1]: 58.6 µM
SMILES: CC(=O)N1CCC2(CC1)CC(=O)c1cc(C(=O)/C=C3\C(=O)Nc4ccc(Br)cc43)c(O)cc1O2

Ki (Carbonic anhydrase 9): 0.0454 µM
SMILES: COCCOc1ccc2c(c1)OC1(CCN(c3ccc(S(N)(=O)=O)cc3[N+](=O)[O-])CC1)CC2=O

IC50 [1]: 48.5 µM
SMILES: CCOC(=O)N1CCC2(CC1)CC(=O)c1cc(C(=O)/C=C3\C(=O)Nc4ccc(Br)cc43)c(O)cc1O2

Ki (Carbonic anhydrase 9): 2.65 µM
SMILES: CCOc1ccc2c(c1)OC1(CCN(c3ccc(S(N)(=O)=O)cc3[N+](=O)[O-])CC1)CC2=O

IC50 [2]: 63.92 µg/mL | IC50 [3]: 44.73 µg/mL (≈ 79.1 µM)
SMILES: Cc1c(C(=O)c2ccc(-c3ccccc3)cc2)oc2cc3c(cc12)C(=O)CC1(CCN(CC(=O)OC(C)(C)C)CC1)O3

IC50 ([2]; read-out: IC50): 8.64 µM | IC50 [1]: 8.64 µM
SMILES: O=C1O[C@H]([C@@H](O)CO)C(O)=C1O [ASCORBIC ACID]

Ki (Carbonic anhydrase 9): 3.3 µM
SMILES: CC(C)Oc1ccc2c(c1)C(=O)CC1(CCN(c3ccc(S(N)(=O)=O)cc3[N+](=O)[O-])CC1)O2

Ki (Carbonic anhydrase 9): 4.08 µM
SMILES: CC(=O)Oc1ccc2c(c1)C(=O)CC1(CCN(c3ccc(S(N)(=O)=O)cc3[N+](=O)[O-])CC1)O2

IC50 [1]: 8.12 µM
SMILES: O=C1Nc2ccccc2/C1=C/C(=O)c1cc2c(cc1O)OC1(CCN(Cc3ccccc3)CC1)CC2=O

Ki (Carbonic anhydrase 9): 1.24 µM
SMILES: CCCOc1ccc2c(c1)C(=O)CC1(CCN(c3ccc(S(N)(=O)=O)cc3[N+](=O)[O-])CC1)O2

Ki (Carbonic anhydrase 9): 3.55 µM
SMILES: Cc1ccc2c(c1)C(=O)CC1(CCN(c3ccc(S(N)(=O)=O)cc3[N+](=O)[O-])CC1)O2

ED50 [4]: 1.6 mg/kg | inhibition [5]: 75%
SMILES: CC(C)(C)n1cc2c(n1)C(=O)CC1(CCN(C(=O)c3ccc4[nH]ncc4c3)CC1)O2
inhibition (INH) [6]: 78% | ED50 [7]: 2.6 mg/kg

Ki (Carbonic anhydrase 9): 3.75 µM
SMILES: NS(=O)(=O)c1ccc(N2CCC3(CC2)CC(=O)c2cc(OCCO)ccc2O3)c([N+](=O)[O-])c1

Ki (Carbonic anhydrase 9): 1.56 µM
SMILES: COc1ccc2c(c1)C(=O)CC1(CCN(c3ccc(S(N)(=O)=O)cc3[N+](=O)[O-])CC1)O2

AUC [8]: 1600 ng·h/mL | half-life [9]: 9.1 h | AUC ([10]; mouse): 1042 ng·h/mL | Cmax [11]: 2490 nM | Vd [12]: 8.6 L/kg | CL ([13]; mouse, iv, 10 mg/kg): 79.8 mL/min/kg
SMILES: O=C(/C=C/c1ccc2c(c1)C(=O)CC1(CCN(CCc3ccccc3)CC1)O2)NO

IC50 [1]: 56.3 µM
SMILES: CC(C)(C)OCC(=O)CN1CCC2(CC1)CC(=O)c1cc(C(=O)/C=C3\C(=O)Nc4ccc(Br)cc43)c(O)cc1O2

IC50 [1]: 1.74 µM
SMILES: CCOC(=O)N1CCC2(CC1)CC(=O)c1cc(C(=O)/C=C3\C(=O)Nc4ccccc43)c(O)cc1O2

Ki (Carbonic anhydrase 9): 0.199 µM
SMILES: NS(=O)(=O)c1ccc(N2CCC3(CC2)CC(=O)c2cc(Br)ccc2O3)c([N+](=O)[O-])c1

IC50 [1]: 12.7 µM
SMILES: O=C1Nc2ccc(Br)cc2/C1=C/C(=O)c1cc2c(cc1O)OC1(CCN(Cc3ccccc3)CC1)CC2=O

IC50 [1]: 47.7 µM
SMILES: CC(=O)N1CCC2(CC1)CC(=O)c1cc(C(=O)/C=C3\C(=O)Nc4ccccc43)c(O)cc1O2

IC50 (MCF7): 47.1 µM | IC50 (HT-29): 23.2 µM | IC50 (A2780): 18.8 µM
SMILES: COc1cc(C(=O)N2CCC3(CC2)CC(=O)c2ccccc2O3)cc(OC)c1OC

Ki (Carbonic anhydrase 9): 4.15 µM
SMILES: CCCOc1ccc2c(c1)OC1(CCN(c3ccc(S(N)(=O)=O)cc3[N+](=O)[O-])CC1)CC2=O

IC50 ([2]; read-out: IC50): 6.59 µM
SMILES: CC(=O)N1CCC2(CC1)CC(=O)c1c(ccc3c1CCC(C)(C)O3)O2
Activity (Erythrocyte): 56.1%

Ki (Carbonic anhydrase 9): 0.229 µM
SMILES: NS(=O)(=O)c1ccc(N2CCC3(CC2)CC(=O)c2ccccc2O3)c([N+](=O)[O-])c1

IC50 [1]: 6.85 µM
SMILES: CC(C)(C)OCC(=O)CN1CCC2(CC1)CC(=O)c1cc(C(=O)/C=C3\C(=O)Nc4ccccc43)c(O)cc1O2

IC50 ([2]; read-out: IC50): 5.32 µM
SMILES: CC(=O)N1CCC2(CC1)CC(=O)c1cc3c(cc1O2)CCC(C)(C)O3
Activity (Erythrocyte): 23.07%

IC50 ([2]; read-out: IC50): 6.59 µM
SMILES: CN1CCC2(CC1)CC(=O)c1c(ccc3c1CCC(C)(C)O3)O2
Activity (Erythrocyte): 64.72%

Ki (Carbonic anhydrase 9): 0.0465 µM
SMILES: NS(=O)(=O)c1ccc(N2CCC3(CC2)CC(=O)c2ccc(OCCO)cc2O3)c([N+](=O)[O-])c1

IC50 (MCF7): 23.9 µM | IC50 (HT-29): 8.46 µM | IC50 (A2780): 22.7 µM
SMILES: O=C1CC2(CCN(C(=O)C34CC5CC(CC(C5)C3)C4)CC2)Oc2ccccc21

SMILES: OC(CN1CCC2(CC1)CC(O)c1ccc3ccccc3c1O2)c1ccc(F)c(F)c1 (stereo unspecified)
EC50 (HepG2): 19 µM | solubility [14]: > 42 µg/mL | solubility [15]: > 42 µg/mL | EC50 (Plasmodium falciparum): 0.35 µM | logP [16]: 3.85

AUC [8]: 1240 ng·h/mL | half-life [9]: 13 h | AUC(0-inf) ([10]; CD1, mouse): 1490 ng·h/mL | Cmax [11]: 1830 nM | Vd [12]: 5.9 L/kg | clearance ([13]; CD-1, mouse): 55.8 mL/min/kg
SMILES: O=C(/C=C/c1ccc2c(c1)C(=O)CC1(CCN(Cc3ccc(F)cc3)CC1)O2)NO

IC50 (MCF7): 6.78 µM | IC50 (HT-29): 16 µM | IC50 (A2780): 1.79 µM
SMILES: Cc1ccc(S(=O)(=O)N2CCC3(CC2)CC(=O)c2ccccc2O3)cc1

Ki (Carbonic anhydrase 9): 2.84 µM
SMILES: CCOc1ccc2c(c1)C(=O)CC1(CCN(c3ccc(S(N)(=O)=O)cc3[N+](=O)[O-])CC1)O2

Ki (Carbonic anhydrase 9): 1.47 µM
SMILES: NS(=O)(=O)c1ccc(N2CCC3(CC2)CC(=O)c2ccc(Br)cc2O3)c([N+](=O)[O-])c1

Ki (Carbonic anhydrase 9): 4.34 µM
SMILES: COCCOc1ccc2c(c1)C(=O)CC1(CCN(c3ccc(S(N)(=O)=O)cc3[N+](=O)[O-])CC1)O2

Ki (Carbonic anhydrase 9): 2.75 µM
SMILES: COc1ccc2c(c1)OC1(CCN(c3ccc(S(N)(=O)=O)cc3[N+](=O)[O-])CC1)CC2=O

Ki (Carbonic anhydrase 9): 0.0346 µM
SMILES: CC(C)Oc1ccc2c(c1)OC1(CCN(c3ccc(S(N)(=O)=O)cc3[N+](=O)[O-])CC1)CC2=O
